Tests used:
[1] = system: influenza A/H1N1/PR8 virus; experiment: microbe, parasite or virus in culture; type: cell-based, H1N1 A/Puerto Rico/08/1934 influenza virus; conditions: for Fold increase over parental antibody: relative to mAb11729 of the same run
[2] = system: influenza A/H3N2/HK68x31 virus; experiment: Antiviral efficacy assay, HK68x31; type: cell-based
[3] = system: influenza A/H1N1/Cal09 virus; experiment: Antiviral efficacy assay, Cal09; type: cell-based; conditions: relative to mAb11729

O=C(O)[C@H]1C2CCC(CC2)[C@@H]1Nc1nc(-c2c[nH]c3ncc(F)cc23)ncc1F [VX-787, reference compound]
IC50 ([1]; MDCK London cells, Runs 1-4): 9.46 nM | Fold increase over parental antibody [1]: 3.32 fold | IC50 [2]: 7.05 nM

B1: mAb11729: anti-hemagglutinin (anti-HA) monoclonal antibody, HCVR SEQ ID NO: 18, LCVR SEQ ID NO: 26 (antibody, V domains shown)
VH: QVQLVQSGAEVKKSGSSVKVSCKASGGTFSSYAISWVRQAPGQGLEWMGGIIPIFGTPSYAQKFQDRVTITTDESTSTVYMELSSLRSEDTAVYYCARQQPVYQYNMDVWGQGTTVTVSS
VL: DIQMTQSPSSLSASVGDRVTITCRASQGIRNNLGWYQQKPLKAPKRLIYAASSLQSGVPSRFSGSGSGTEFTLTISSLQPEDFATYYCLQYNNYPWTFGQGTKVEIK
Fold increase over parental antibody [1]: 1.00 fold | Fold increase over parental antibody [3]: 1.00 fold

Reference: patent publication US12564640B2, “Protein-antiviral compound conjugates” (priority 2020, dated 2026)
